Assays:
Format in all cases: in vivo
Crabgrass [1] = test: Preemergent activity
Procedure, shortened: (§1)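 Test compound was applied in acetone mixed with an equal volume of water containing 0.1% Tween-20, sprayed preemergence onto seed beds of sandy loam soil sown with the test species. Beds were kept under identical temperature and light. A solvent-only spray served as control.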

Wheat = test: Preemergent activity; conditions: Triticum aestivum, pre-emergence, read-out: Preemergence Control; for plant injury at 70 g/ha: 0.07 kgs/hectare; for plant injury at 280 g/ha: 0.28 kgs/hectare
Procedure, shortened: as §1

Barnyard Grass [2] = test: Preemergent activity; conditions: Echinochloa crus-galli, pre-emergence, read-out: Preemergence Control; for pest or weed control at 70 g/ha: 0.07 kgs/hectare; for pest or weed control at 280 g/ha: 0.28 kgs/hectare
Procedure, shortened: as §1

yellow nutsedge = test: Preemergent activity; conditions: 0.28 kgs/hectare, seeds
Procedure: (§2) In a representative operation, 2-[4-(2-fluoro-4-trifluoromethylphenoxy)phenoxy]propionic acid methyl ester, to be utilized in a series of tests, is dissolved in acetone to one half of the final volume (twice the final concentration) to be used and the acetone solution in each case is admixed with an equal volume of water containing 0.1 percent by weight of Tween-20 surface active material (Tween-20 is a trademark of Atlas Chemical Company). The composition, generally in the nature of an emulsion, was employed to treat separate respective seed beds of sandy loam soil of good nutrient content wherein each seed bed contained separate groups of good viable seeds, each group being of one of a known plant species. The various beds were positioned side by side and exposed to substantially identical conditions of temperature and light. Each bed was maintained so as to prevent any interaction with the test compound in different seed beds. Each seed bed was treated with the composition as a spray employing conventional spraying equipment to deposit a predetermined amount of the compound uniformly throughout the surface of the bed. Another seed bed was treated only with the acetone-Tween-20 water mixture with no chemical added to serve as a control. After treatment, the seed beds were maintained for two weeks under greenhouse conditions conducive for good plant growth and watered as necessary. Control refers to the reduction in growth of the test species in the presence of the test chemical relative to the observed growth of the same species in the absence of the test chemical.
(§3) Substantially the same procedures described in Example C were repeated using as the active ingredients

rape [3] = test: Preemergent activity; conditions: 0.28 kgs/hectare, seeds
Procedure: as §2, §3

jimson weed [4] = test: Preemergent activity; conditions: 0.28 kgs/hectare, seeds
Procedure: as §2, §3

cotton [5] = test: Preemergent activity; conditions: 0.28 kgs/hectare, seeds
Procedure: as §2, §3

soybeans = test: Postemergent activity; conditions: 125 ppm
Procedure: (§4) Representative compositions of the present invention were evaluated for the postemergence control of species of plants listed in Table A. In these evaluations, pots of the plant species listed in Table A, grown to a height of about 10 cms, were used. Aqueous spray compositions, containing various amounts of 2-[4-(2-fluoro-4-trifluoromethylphenoxy)-phenoxy]propionic acid methy ester, i.e., 125 ppm, 62.5 ppm, 31.25 ppm, 15.6 ppm, 7.8 ppm and 3.9 ppm, respectively, were applied to separate pots. The spray compositions were made by mixing the active ingredient in acetone to 1/2 the final volume, i.e., twice the final concentration. An equal amount of water was added to the active ingredient/acetone mixture wherein the water contained 0.1 percent by weight of TWEEN® 200 surfactant. The application to the plants was made to the point of run-off and was carried out with conventional spraying equipment. Other pots were sprayed with similar compositions containing no toxicant to serve as controls. Thereafter, the pots were maintained under conditions conducive for plant growth. Two weeks after treatment, the pots were examined for plant growth and evaluated on a scale of 0 to 100 where 0 represents no effect and 100 represents complete kill. The results of the examination of the treated pots are set forth below in Table A.

morning glory = test: Postemergent activity; conditions: 125 ppm
Procedure: as §4

rape [6] = test: Postemergent activity; conditions: 125 ppm
Procedure: as §4

velvet leaf = test: Postemergent activity; conditions: 125 ppm
Procedure: as §4

pigweed = test: Postemergent activity; conditions: 125 ppm
Procedure: as §4

jimson weed [7] = test: Postemergent activity; conditions: 125 ppm
Procedure: as §4

Johnson Grass = test: Postemergent activity
Procedure: as §4

cotton [8] = test: Postemergent activity; conditions: 125 ppm
Procedure: as §4

cocklebur = test: Postemergent activity; conditions: 125 ppm
Procedure: as §4

sugar beets = test: Postemergent activity; conditions: 125 ppm
Procedure: as §4

Crabgrass [9] = test: Postemergent activity
Procedure, shortened: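 Potted crabgrass plants grown to roughly 10 cms tall were sprayed to run-off with aqueous compositions of the test compound, which was first dissolved in acetone at twice the final concentration and then diluted with an equal volume of water containing 0.1 percent by weight TWEEN® 200 surfactant. Pots sprayed without toxicant served as controls. After two weeks under growth-favorable conditions, plant control was scored from 0 (no effect) to 100 (complete kill).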

Barnyard Grass [10] = test: Postemergent activity
Procedure, shortened: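 Potted plants about 10 cms tall were sprayed to run-off with conventional equipment using aqueous compositions. These were made by dissolving the active ingredient in acetone at twice the final concentration and diluting with an equal volume of water containing 0.1 percent TWEEN® 200 surfactant. Toxicant-free sprays served as controls. After two weeks of growth, injury was scored from 0 (no effect) to 100 (complete kill).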

With `COC(=O)C(C)Oc1ccc(Oc2ccc(Cl)cc2F)cc1` (racemic) [Example 4-Chloro-, 2-[4-(4-chloro-2-fluorophenoxy)phenoxy]propionic acid methyl ester] the “Preemergence Control” value (Crabgrass [1]; 0.07 kgs/hectare) was 60%, the “Preemergence Control” value (Crabgrass [1]; 0.14 kgs/hectare) was 100% and the “Preemergence Control” value (Crabgrass [1]; 0.28 kgs/hectare) was 100%. The “Preemergence Control” value (Crabgrass [1]; 0.56 kgs/hectare) was 100%, the “Preemergence Control” value (Crabgrass [1]; 1.12 kgs/hectare) was 100% and the plant injury at 70 g/ha (Wheat) was 0%. For the same molecule, the plant injury at 140 g/ha (Wheat; 0.14 kgs/hectare) was 0%, the plant injury at 280 g/ha (Wheat) was 0% and the plant injury at 560 g/ha (Wheat; 0.56 kgs/hectare) was 0%. For the same molecule, the plant injury at 1120 g/ha (Wheat; 1.12 kgs/hectare) was 0%, the pest or weed control at 70 g/ha (Barnyard Grass [2]) was 40% and the pest or weed control at 140 g/ha (Barnyard Grass [2]; 0.14 kgs/hectare) was 98%. For the same molecule, the pest or weed control at 280 g/ha (Barnyard Grass [2]) was 98%, the pest or weed control at 560 g/ha (Barnyard Grass [2]; 0.56 kgs/hectare) was 100% and the pest or weed control at 1120 g/ha (Barnyard Grass [2]; 1.12 kgs/hectare) was 100%.

With `COC(=O)C(C)Oc1ccc(Oc2ccc(C(F)(F)F)cc2F)cc1` (stereo not shown) [2-[4-(2-fluoro-4-trifluoromethylphenoxy)phenoxy]propionic acid methyl ester] the phytotoxic effect (yellow nutsedge) was “inactive”, the phytotoxic effect (rape [3]) was “inactive” and the phytotoxic effect (jimson weed [4]) was “inactive”. The phytotoxic effect (cotton [5]) was “inactive”, the phytotoxic effect (soybeans) was “inactive” and the phytotoxic effect (morning glory) was “inactive”. The phytotoxic effect (rape [6]) was “inactive”, the phytotoxic effect (velvet leaf) was “inactive” and the phytotoxic effect (pigweed) was “inactive”. For the same molecule, the phytotoxic effect (jimson weed [7]) was “inactive”, the “% Control” value (Johnson Grass; 3.9 ppm) was 60% and the “% Control” value (Johnson Grass; 7.8 ppm) was 100%. For the same molecule, the “% Control” value (Johnson Grass; 15.6 ppm) was 100%, the “% Control” value (Johnson Grass; 31.25 ppm) was 100% and the “% Control” value (Johnson Grass; 62.5 ppm) was 100%. For the same molecule, the “% Control” value (Johnson Grass; 125 ppm) was 100%, the phytotoxic effect (cotton [8]) was “inactive” and the phytotoxic effect (cocklebur) was “inactive”. For the same molecule, the phytotoxic effect (sugar beets) was “inactive”, the “% Control” value (Crabgrass [9]; 3.9 ppm) was 90% and the “% Control” value (Crabgrass [9]; 7.8 ppm) was 100%. For the same molecule, the “% Control” value (Crabgrass [9]; 15.6 ppm) was 100%, the “% Control” value (Crabgrass [9]; 31.25 ppm) was 100% and the “% Control” value (Crabgrass [9]; 62.5 ppm) was 100%. The “% Control” value (Crabgrass [9]; 125 ppm) was 100%, the “% Control” value (Barnyard Grass [10]; 3.9 ppm) was 50% and the “% Control” value (Barnyard Grass [10]; 7.8 ppm) was 100%. The “% Control” value (Barnyard Grass [10]; 15.6 ppm) was 100%, the “% Control” value (Barnyard Grass [10]; 31.25 ppm) was 100% and the “% Control” value (Barnyard Grass [10]; 62.5 ppm) was 100%. The “% Control” value (Barnyard Grass [10]; 125 ppm) was 100%, the “Preemergence Control” value (Crabgrass [1]; 0.018 kgs/hectare) was 40% and the “Preemergence Control” value (Crabgrass [1]; 0.035 kgs/hectare) was 100%. The “Preemergence Control” value (Crabgrass [1]; 0.07 kgs/hectare) was 100%, the “Preemergence Control” value (Crabgrass [1]; 0.114 kgs/hectare) was 100% and the “Preemergence Control” value (Crabgrass [1]; 0.28 kgs/hectare) was 100%. For the same molecule, the plant injury at 18 g/ha (Wheat; 0.018 kgs/hectare) was 0%, the plant injury at 35 g/ha (Wheat; 0.035 kgs/hectare) was 20% and the plant injury at 70 g/ha (Wheat) was 90%. It also gave a plant injury at 114 g/ha (Wheat; 0.114 kgs/hectare) of 100%, a plant injury at 280 g/ha (Wheat) of 100% and a pest or weed control at 18 g/ha (Barnyard Grass [2]; 0.018 kgs/hectare) of 20%. For the same molecule, the pest or weed control at 35 g/ha (Barnyard Grass [2]; 0.035 kgs/hectare) was 70%, the pest or weed control at 70 g/ha (Barnyard Grass [2]) was 80% and the pest or weed control at 114 g/ha (Barnyard Grass [2]; 0.114 kgs/hectare) was 100%. The pest or weed control at 280 g/ha (Barnyard Grass [2]) was 100%.
